Results published in patent publication US20260297080A1, “BICYCLIC COMPOUNDS AS CDK INHIBITORS” (BeOne Medicines I GmbH, priority 2022, published 2026).

Legend:
CDK1/Cyclin B1 = CDK1/Cyclin B1 (Homo sapiens, UniProt P06493); test: CDK1/Cyclin B1 Biochemical Assay (TR-FRET), 0.015 mM ATP; details: 0.15 μM Rb (Ser780)-biotin substrate, pH7.0, 60 min preincubation, 120 min reaction, room temperature
Method: (§1) CDK2/Cyclin E1 and CDK1/Cyclin B1 Biochemical Assays
(§2) Compounds disclosed herein were tested for inhibition of CDK2/Cyclin E1 or CDK1/Cyclin B1 kinase in an assay based on the time-resolved fluorescence-resonance energy transfer (TR-FRET) methodology. The assay was carried out in 384-well low volume black plates in a reaction mixture containing CDK2/Cyclin E1 or CDK1/Cyclin B1, 0.060 mM ATP for CDK2/Cyclin E1 or 0.015 mM ATP for CDK1/Cyclin B1, 0.15 μM Rb (Ser780)-biotin substrate and 0-10 μM compound in buffer containing 50 mM HEPES pH7.0, 0.02% NaN3, 0.01% BSA, 0.1 mM Orthovanadate, 50 mM MgCl2, 1 mM DTT and 0.005% Tween-20. The kinase was incubated with compound for 60 minutes at room temperature and the reaction was initiated by the addition of ATP and Rb (Ser780)-biotin substrate. After reaction at room temperature for 120 minutes, an equal volume of stop/detection solution was added according to the manufacture's instruction (Cisbio Bioassays). The stop/detection solution contained Streptavidin-XL665 and Anti-pRb (Ser780) mAb-Eu Cryptate in Detection buffer (Cisbio Bioassays). Plates were incubated at room temperature for 60 minutes, and the TR-FRET signals (ex337 nm, em665 nm/620 nm) were recorded on a PHERAstar FSX plate reader (BMG Labtech). The inhibition percentage of CDK2/Cyclin E1 or CDK1/Cyclin B1 kinase activity in presence of increasing concentrations of compounds was calculated based on the ratio of fluorescence at 665 nm to that at 620 nm. The IC50 for each compound was derived from fitting the data to the four-parameter logistic equation by Dotmatics.

CDK2/Cyclin E1 = CDK2/Cyclin E1 (Homo sapiens, UniProt P24941); test: CDK2/Cyclin E1 Biochemical Assay (TR-FRET), 0.060 mM ATP; details: 0.15 μM Rb (Ser780)-biotin substrate, pH7.0, 60 min preincubation, 120 min reaction, room temperature
Method: as §1, §2

CDK1/Cyclin B1, sequence (P06493 whole entry): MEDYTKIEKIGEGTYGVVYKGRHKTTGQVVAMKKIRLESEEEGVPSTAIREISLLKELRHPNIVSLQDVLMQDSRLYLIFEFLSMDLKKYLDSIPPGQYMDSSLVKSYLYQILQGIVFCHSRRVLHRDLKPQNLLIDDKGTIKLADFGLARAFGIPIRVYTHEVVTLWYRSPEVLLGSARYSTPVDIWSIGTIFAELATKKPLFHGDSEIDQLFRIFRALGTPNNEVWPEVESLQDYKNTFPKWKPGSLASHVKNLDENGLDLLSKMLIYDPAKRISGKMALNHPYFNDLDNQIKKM
CDK1/Cyclin B1, sequence (P14635 whole entry partner): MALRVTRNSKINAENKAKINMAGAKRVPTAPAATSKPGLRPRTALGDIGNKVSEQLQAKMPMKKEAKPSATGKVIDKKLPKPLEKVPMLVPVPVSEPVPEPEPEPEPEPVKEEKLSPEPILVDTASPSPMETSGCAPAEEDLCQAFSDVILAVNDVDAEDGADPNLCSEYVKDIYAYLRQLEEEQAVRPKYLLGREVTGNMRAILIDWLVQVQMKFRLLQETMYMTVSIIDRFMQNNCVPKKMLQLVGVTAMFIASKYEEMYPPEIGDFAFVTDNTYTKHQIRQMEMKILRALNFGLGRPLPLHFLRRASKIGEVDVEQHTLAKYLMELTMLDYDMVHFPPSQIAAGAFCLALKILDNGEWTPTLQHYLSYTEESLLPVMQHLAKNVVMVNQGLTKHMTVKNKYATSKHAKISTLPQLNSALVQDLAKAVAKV

| Compound | IC50 (CDK1/Cyclin B1) | IC50 (CDK2/Cyclin E1) |
| --- | --- | --- |
| CC(C)NC(=O)O[C@H]1CC[C@@H](c2cc(Nc3ccc4c(c3Cl)CNS4(=O)=O)n[nH]2)C1 (single isomer, unassigned) [Example 38a, cis-3-(3-((4-chloro-1,1-dioxido-2,3-dihydrobenzo[d]isothiazol-5-yl)amino)-1H-pyrazol-5-yl)cyclopentyl isopropylcarbamate] | 1.5 µM | 0.038 µM |
| CC(C)NC(=O)O[C@H]1CC[C@@H](c2cc(Nc3ccc4c(c3)S(=O)(=O)NC4C)[nH]n2)C1 (single isomer, unassigned) [Example 5d, cis-3-(5-((3-methyl-1,1-dioxido-2,3-dihydrobenzo[d]isothiazol-6-yl)amino)-1H-pyrazol-3-yl)cyclopentyl isopropylcarbamate] | 0.045 µM | 0.0029 µM |
| CC(C)NC(=O)O[C@H]1CC[C@@H](c2cc(Nc3cc4c(cc3C(F)(F)F)S(=O)(=O)NC4)n[nH]2)C1 (relative stereo) [Example 20, cis-3-(3-((1,1-dioxido-6-(trifluoromethyl)-2,3-dihydrobenzo[d]isothiazol-5-yl)amino)-1H-pyrazol-5-yl)cyclopentyl isopropylcarbamate] | > 10 µM | 0.931 µM |
| CC(C)NC(=O)O[C@H]1CC[C@@H](c2cc(Nc3ccc4c(c3F)CN(C3CC(O)C3)S4(=O)=O)n[nH]2)C1 (relative stereo) [Example 84, 3-(3-((4-fluoro-2-(3-hydroxycyclobutyl)-1,1-dioxido-2,3-dihydrobenzo[d]isothiazol-5-yl)amino)-1H-pyrazol-5-yl)cyclopentyl isopropylcarbamate] | 0.39 µM | 0.0086 µM |
| CCCNC(=O)O[C@H]1CC[C@@H](c2cc(Nc3ccc4c(c3F)C(C)(C)NS4(=O)=O)n[nH]2)C1 (relative stereo) [Example 58, cis-3-(3-((4-fluoro-3,3-dimethyl-1,1-dioxido-2,3-dihydrobenzo[d]isothiazol-5-yl)amino)-1H-pyrazol-5-yl)cyclopentyl propylcarbamate] | 0.694 µM | 0.093 µM |
| CC(C)NC(=O)O[C@H]1CC[C@@H](c2cc(Nc3ccc4c(c3F)CN(CC(O)CO)S4(=O)=O)n[nH]2)C1 (relative stereo) [Example 71, cis-3-(3-((2-(2,3-dihydroxypropyl)-4-fluoro-1,1-dioxido-2,3-dihydrobenzo[d]isothiazol-5-yl)amino)-1H-pyrazol-5-yl)cyclopentyl isopropylcarbamate] | 0.44 µM | 0.0052 µM |
| CC(C)NC(=O)O[C@H]1CC[C@@H](c2cc(Nc3ccc4c(c3F)CN(C3CN(C(c5ccccc5)c5ccccc5)C3)S4(=O)=O)n[nH]2)C1 (relative stereo) [Example 94, cis-3-(3-((2-(1-benzhydrylazetidin-3-yl)-4-fluoro-1,1-dioxido-2,3-dihydrobenzo[d]isothiazol-5-yl)amino)-1H-pyrazol-5-yl)cyclopentyl isopropylcarbamate] | > 10 µM | 0.332 µM |
| CC(C)NC(=O)O[C@H]1CC[C@@H](c2cc(Nc3ccc4c(c3F)CN(CC3CCNC3=O)S4(=O)=O)n[nH]2)C1 (relative stereo) [Example 110, cis-3-(3-((4-fluoro-1,1-dioxido-2-((2-oxopyrrolidin-3-yl)methyl)-2,3-dihydrobenzo[d]isothiazol-5-yl)amino)-1H-pyrazol-5-yl)cyclopentyl isopropylcarbamate] | 0.225 µM | 0.0027 µM |
| CC(C)NC(=O)O[C@H]1CC[C@@H](c2cc(Nc3cc4c(cc3C(F)(F)F)S(=O)(=O)NC4(C)C)n[nH]2)C1 (relative stereo) [Example 21, cis-3-(3-((3,3-dimethyl-1,1-dioxido-6-(trifluoromethyl)-2,3-dihydrobenzo[d]isothiazol-5-yl)amino)-1H-pyrazol-5-yl)cyclopentyl isopropylcarbamate] | > 10 µM | > 10 µM |
| CC(C)NC(=O)O[C@H]1CC[C@@H](c2cc(Nc3ccc4c(c3C(F)(F)F)CNS4(=O)=O)n[nH]2)C1 (relative stereo) [Example 22, cis-3-(3-((1,1-dioxido-4-(trifluoromethyl)-2,3-dihydrobenzo[d]isothiazol-5-yl)amino)-1H-pyrazol-5-yl)cyclopentyl isopropylcarbamate] | > 10 µM | 0.202 µM |
| CC[C@H](C)NC(=O)O[C@H]1CC[C@@H](c2cc(Nc3ccc4c(c3F)C(C)NS4(=O)=O)n[nH]2)C1 (single isomer, unassigned) [Example 54a] | 0.309 µM | 0.0011 µM |
| CC(C)NC(=O)O[C@H]1CC[C@@H](c2cc(Nc3ccc4c(c3F)CN(C3CN(Cc5ccccc5)C3)S4(=O)=O)n[nH]2)C1 (relative stereo) [Example 92, cis-3-(3-((2-(1-benzylazetidin-3-yl)-4-fluoro-1,1-dioxido-2,3-dihydrobenzo[d]isothiazol-5-yl)amino)-1H-pyrazol-5-yl)cyclopentyl isopropylcarbamate] | 1.55 µM | 0.036 µM |
| CC(C)NC(=O)O[C@H]1CC[C@@H](c2cc(Nc3ccc4c(n3)CNS4(=O)=O)n[nH]2)C1 (relative stereo) [Example 33, cis-3-(3-((1,1-dioxido-2,3-dihydroisothiazolo[4,5-b]pyridin-5-yl)amino)-1H-pyrazol-5-yl)cyclopentyl isopropylcarbamate] | 0.038 µM | 0.0018 µM |

Second part, the molecule after the results:

| IC50 (CDK1/Cyclin B1) | IC50 (CDK2/Cyclin E1) | Compound |
| --- | --- | --- |
| 0.0032 µM | 0.0006 µM | CC1NS(=O)(=O)c2ccc(Nc3cc([C@@H]4CC[C@H](OC(=O)NC5(C)CC5)C4)[nH]n3)cc21 (single isomer, unassigned) [Example 322b, cis-3-(3-((3-methyl-1,1-dioxido-2,3-dihydrobenzo[d]isothiazol-5-yl)amino)-1H-pyrazol-5-yl)cyclopentyl(1-methylcyclopropyl)carbamate] |
| 0.01 µM | 0.0013 µM | CN1c2ccc(Nc3cc([C@@H]4CC[C@H](OC(=O)NC5(C)CCC5)C4)[nH]n3)cc2CS1(=O)=O (relative stereo) [Example 233, cis-3-(3-((1-methyl-2,2-dioxido-1,3-dihydrobenzo[c]isothiazol-5-yl)amino)-1H-pyrazol-5-yl)cyclopentyl(1-methylcyclobutyl)carbamate] |
| 0.076 µM | 0.0017 µM | CC(NC(=O)O[C@H]1CC[C@@H](c2cc(Nc3ccc4c(c3F)CNS4(=O)=O)n[nH]2)C1)C1CC1 (relative stereo) [Example 156, cis-3-(3-((4-fluoro-1,1-dioxido-2,3-dihydrobenzo[d]isothiazol-5-yl)amino)-1H-pyrazol-5-yl)cyclopentyl(1-cyclopropylethyl)carbamate] |
| 0.129 µM | 0.0016 µM | CC1(NC(=O)O[C@H]2CC[C@@H](c3cc(Nc4ccc5c(c4F)CS(=O)(=O)N5CC(F)(F)F)n[nH]3)C2)CCOC1 (relative stereo) [Example 407, cis-3-(3-((4-fluoro-2,2-dioxido-1-(2,2,2-trifluoroethyl)-1,3-dihydrobenzo[c]isothiazol-5-yl)amino)-1H-pyrazol-5-yl)cyclopentyl(3-methyltetrahydrofuran-3-yl)carbamate] |
| 0.053 µM | 0.0049 µM | CC1(NC(=O)O[C@H]2CC[C@@H](c3cc(Nc4ccc5c(c4)CS(=O)(=O)N5)n[nH]3)C2)CCOCC1 (relative stereo) [Example 398, cis-3-(3-((2,2-dioxido-1,3-dihydrobenzo[c]isothiazol-5-yl)amino)-1H-pyrazol-5-yl)cyclopentyl(4-methyltetrahydro-2H-pyran-4-yl)carbamate] |
| 0.261 µM | 0.0083 µM | CCCNC(=O)O[C@H]1CC[C@@H](c2cc(Nc3ccc4c(c3F)CN(CCO)S4(=O)=O)n[nH]2)C1 (relative stereo) [Example 126, cis-3-(3-((4-fluoro-2-(2-hydroxyethyl)-1,1-dioxido-2,3-dihydrobenzo[d]isothiazol-5-yl)amino)-1H-pyrazol-5-yl)cyclopentyl propylcarbamate] |
| 0.606 µM | 0.0091 µM | CC(NC(=O)O[C@H]1CC[C@@H](c2cc(Nc3ccc4c(c3F)CNS4(=O)=O)n[nH]2)C1)C1COC1 (relative stereo) [Example 147, cis-3-(3-((4-fluoro-1,1-dioxido-2,3-dihydrobenzo[d]isothiazol-5-yl)amino)-1H-pyrazol-5-yl)cyclopentyl(1-(oxetan-3-yl)ethyl)carbamate] |
| 0.175 µM | 0.0027 µM | CC(C)(CO)NC(=O)O[C@H]1CC[C@@H](c2cc(Nc3ccc4c(c3F)CNS4(=O)=O)n[nH]2)C1 (relative stereo) [Example 329, cis-3-(3-((4-fluoro-1,1-dioxido-2,3-dihydrobenzo[d]isothiazol-5-yl)amino)-1H-pyrazol-5-yl)cyclopentyl(1-hydroxy-2-methylpropan-2-yl)carbamate] |
